For this test, the target named is T1, BRD4 (Homo sapiens, UniProt O60885).
T1 construct: fused on or other part: GST tag, fused on for capture by the AlphaLISA Glutathione Acceptor Beads
Description: BRD4-H4 tetraacetylated Peptide Inhibition AlphaScreen. Particulars: GST-BRD4-BD1 (aa 44-168) or GST-BRD4-BD2 (aa 333-460) with biotinylated Acetyl-Histone H4 peptide; table does not state which bromodomain. Type of test: binding. The protocol: Biological Methods BRD4-H4 tetraacetylated Peptide Inhibition AlphaScreen
Compounds are diluted in serial dilution 1:5 in assay buffer from 10 mM stock in DMSO (100 μM start concentration) in white OptiPlate-384 (PerkinElmer). A mix consisting of 15 nM GST-BRD4-BD1 protein (aa 44-168) or 150 nM GST-BRD4-BD2 (aa 333-460) and 15 nM biotinylated Acetyl-Histone H4 (LysS, 8, 12, 16) peptide is prepared in assay buffer (50 mM HEPES pH=7.4; 25 mM NaCl; 0.05% Tween 20; 0.1% bovine serum albumin (BSA); 10 mM dithiothreitol (DTT)). 6 μl of the mix is added to the compound dilutions. Subsequently, 6 μl of premixed AlphaLISA Glutathione Acceptor Beads and AlphaScreen Streptavidin Donor Beads from PerkinElmer (in assay buffer at a concentration of 10 μg/ml each) are added and the samples are incubated for 30 min at RT in the dark (shaking 300 rpm). Afterwards, the signal is measured in a PerkinElmer Envision HTS
Multilabel Reader using the AlphaScreen protocol from PerkinElmer. Each plate contains negative controls where biotinylated Acetyl-Histone H4 peptide and GST-BRD4-BD1 or GST-BRD4-BD2 are left out and replaced by assay buffer. Negative control values are entered as low basis value when using the software GraphPad Prism for calculations. Furthermore, a positive control (probe molecule JQ1+ with protein/peptide mix) is pipetted. Determination of IC50 values are carried out using GraphPad Prism 3.03 software (or updates thereof).

As to `Cc1noc(C)c1-c1ccc2c(c1)C(C)(c1ccccc1)C(=O)N2C` (centres unmarked) [Example 19, 5-(3,5-Dimethyl-isoxazol-4-yl)-1,3-dimethyl-3-phenyl-1,3-dihydro-indol-2-one], the IC50 was 275 nM.
The value for `Cc1noc(C)c1-c1ccc2c(c1)C(C1CCCCC1)N(C)C2=O` (centres unmarked) [Example 6, 3-Cyclohexyl-5-(3,5-dimethyl-isoxazol-4-yl)-2-methyl-2,3-dihydro-isoindol-1-one] was 43 nM; that for `Cc1noc(C)c1-c1ccc2c(c1)C(c1cc(F)cc(F)c1)N(C)C2=O` (centres unmarked) [Example 5, 3-(3,5-Difluoro-phenyl)-5-(3,5-dimethyl-isoxazol-4-yl)-2-methyl-2,3-dihydro-isoindol-1-one] was 229 nM.
Next, `Cc1noc(C)c1-c1ccc2c(c1)C(O)(c1ccccn1)C(=O)N2` (centres unmarked) [Example 32, 5-(3,5-Dimethyl-isoxazol-4-yl)-3-hydroxy-3-pyridin-2-yl-1,3-dihydro-indol-2-one]: 332 nM.
With `Cc1noc(C)c1-c1ccc2c(c1)C1(c3ccccc3)OCCN1C2=O` (centres unmarked) [Example 14, 8-(3,5-Dimethyl-isoxazol-4-yl)-9b-phenyl-2,3-dihydro-9bH-oxazolo[2,3-a]isoindol-5-one], the IC50 stood at 72 nM.
The value for `Cc1noc(C)c1-c1ccc2c(c1)C1(c3ccccc3)OCCCN1C2=O` (centres unmarked) [Example 15, 9-(3,5-Dimethyl-isoxazol-4-yl)-10b-phenyl-3,4-dihydro-2H,10bH-[1,3]oxazino[2,3-a]isoindol-6-one] was 36 nM; that for `Cc1noc(C)c1-c1ccc2c(c1)C(C)(c1ccccc1)C(=O)N2c1cccnc1` (centres unmarked) [Example 20, 5-(3,5-Dimethyl-isoxazol-4-yl)-3-methyl-3-phenyl-1-pyridin-3-yl-1,3-dihydro-indol-2-one] was 242 nM.
Next, `Cc1noc(C)c1-c1ccc2c(c1)C(C)(c1ccccc1)C(=O)N2` (centres unmarked) [Example 18, 5-(3,5-Dimethyl-isoxazol-4-yl)-3-methyl-3-phenyl-1,3-dihydro-indol-2-one]: 54 nM; `Cc1noc(C)c1-c1ccc2c(c1)C(c1ccccc1)N(C)C2=O` (centres unmarked) [Example 8, 5-(3,5-Dimethyl-isoxazol-4-yl)-2-methyl-3-phenyl-2,3-dihydro-isoindol-1-one]: 55 nM.
Compound `Cc1noc(C)c1-c1ccc2c(c1)C(C)(c1ccccc1)N(C)C2=O` (centres unmarked) [Example 10, 5-(3,5-Dimethyl-isoxazol-4-yl)-2,3-dimethyl-3-phenyl-2,3-dihydro-isoindol-1-one] returned an IC50 of 38 nM.
The value for `Cc1noc(C)c1-c1ccc2c(c1)C(c1ccccc1)N(C(C)C)C2=O` (centres unmarked) [Example 12, 5-(3,5-Dimethyl-isoxazol-4-yl)-2-isopropyl-3-phenyl-2,3-dihydro-isoindol-1-one] was 75 nM.
Next, `Cc1noc(C)c1-c1ccc2c(c1)C(c1ccccc1)N(C1CCN(C)CC1)C2=O` (centres unmarked) [Example 2, 5-(3,5-Dimethyl-isoxazol-4-yl)-2-(1-methyl-piperidin-4-yl)-3-phenyl-2,3-dihydro-isoindol-1-one]: 57 nM; `Cc1noc(C)c1-c1ccc2c(c1)C(c1ccccc1)N(CCN(C)C)C2=O` (centres unmarked) [Example 4, 2-(2-Dimethylamino-ethyl)-5-(3,5-dimethyl-isoxazol-4-yl)-3-phenyl-2,3-dihydro-isoindol-1-one]: 65 nM.
Next, `COc1c(-c2c(C)noc2C)ccc2c1C(c1ccccc1)OC2=O` (centres unmarked) [Example 16, 5-(3,5-Dimethyl-isoxazol-4-yl)-4-methoxy-3-phenyl-3,1-isobenzofuran-1-one]: 350 nM; `Cc1noc(C)c1-c1ccc2c(c1)C(O)(c1ccc(F)c(F)c1)C(=O)N2` (centres unmarked) [Example 28, 3-(3,4-Difluoro-phenyl)-5-(3,5-dimethyl-isoxazol-4-yl)-3-hydroxy-1,3-dihydro-indol-2-one]: 203 nM.
In the case of `Cc1ccccc1C1(O)C(=O)Nc2ccc(-c3c(C)noc3C)cc21` (centres unmarked) [Example 33, 5-(3,5-Dimethyl-isoxazol-4-yl)-3-hydroxy-3-o-tolyl-1,3-dihydro-indol-2-one], inhibition was half-maximal at 1060 nM (IC50).
Next, `Cc1noc(C)c1-c1ccc2c(c1)[C@](O)(c1ccccc1CN1CCOCC1)C(=O)N2` [Example 24, 5-(3,5-Dimethyl-isoxazol-4-yl)-3-hydroxy-3-(2-morpholin-4-ylmethyl-phenyl)-1,3-dihydro-indol-2-one]: 41 nM; `Cc1noc(C)c1-c1ccc2c(c1)C(O)(c1ccccc1)C(=O)N2` (centres unmarked) [Example 21, 5-(3,5-Dimethyl-isoxazol-4-yl)-3-hydroxy-3-phenyl-1,3-dihydro-indol-2-one]: 259 nM.
Take `COc1cc(F)cc(C2c3cc(-c4c(C)noc4C)ccc3C(=O)N2C)c1` (centres unmarked) [Example 1, 5-(3,5-Dimethyl-isoxazol-4-yl)-3-(3-fluoro-5-methoxy-phenyl)-2-methyl-2,3-dihydro-isoindol-1-one]: the IC50 came to 380 nM.
Next, `Cc1noc(C)c1-c1ccc2c(c1)C(O)(C1CCCCC1)C(=O)N2` (centres unmarked) [Example 30, 3-cyclohexyl-5-(3,5-dimethyl-isoxazol-4-yl)-3-hydroxy-1,3-dihydro-indol-2-one]: 196 nM; `Cc1noc(C)c1-c1ccc2c(c1)C(O)(c1ccc(Cl)cc1)C(=O)N2` (centres unmarked) [Example 25, 3-(4-Chloro-phenyl)-5-(3,5-dimethyl-isoxazol-4-yl)-3-hydroxy-1,3-dihydro-indol-2-one]: 295 nM; `Cc1noc(C)c1-c1ccc2c(c1)C(O)(c1ccccc1CN1CCOCC1)C(=O)N2` (centres unmarked) [Example 23, 5-(3,5-Dimethyl-isoxazol-4-yl)-3-hydroxy-3-(2-morpholin-4-ylmethyl-phenyl)-1,3-dihydro-indol-2-one]: 176 nM.
`Cc1noc(C)c1-c1ccc2c(c1)C(c1ccccc1)N(CCCN(C)C)C2=O` (centres unmarked) [Example 3, 2-(3-Dimethylamino-propyl)-5-(3,5-dimethyl-isoxazol-4-yl)-3-phenyl-2,3-dihydro-isoindol-1-one] came in with an IC50 of 43 nM.
`Cc1noc(C)c1-c1ccc2c(c1)C(O)(C1CCCC1)C(=O)N2` (centres unmarked) [Example 27, 3-Cyclopentyl-5-(3,5-dimethyl-isoxazol-4-yl)-3-hydroxy-1,3-dihydro-indol-2-one]: the IC50 is 698 nM.
The value for `Cc1noc(C)c1-c1ccc2c(c1)C(O)(C1CCOCC1)C(=O)N2` (centres unmarked) [Example 34, 5-(3,5-Dimethyl-isoxazol-4-yl)-3-hydroxy-3-(tetrahydro-pyran-4-yl)-1,3-dihydro-indol-2-one] was 1570 nM.
The value for `Cc1cncc(C2(O)C(=O)Nc3ccc(-c4c(C)noc4C)cc32)c1` (centres unmarked) [Example 35, 5-(3,5-Dimethyl-isoxazol-4-yl)-3-hydroxy-3-(5-methyl-pyridin-3-yl)-1,3-dihydro-indol-2-one] was 1040 nM; that for `Cc1noc(C)c1-c1ccc2c(c1)C(C1CCC3(CCC3)CC1)N(C)C2=O` (centres unmarked) [Example 7, 5-(3,5-Dimethyl-isoxazol-4-yl)-2-methyl-3-spiro[3.5]non-7-yl-2,3-dihydro-isoindol-1-one] was 1090 nM; that for `Cc1noc(C)c1-c1ccc2c(c1)C(c1ccccc1)OC2=O` (centres unmarked) [Example 13, 5-(3,5-Dimethyl-isoxazol-4-yl)-3-phenyl-3H-isobenzofuran-1-one] was 193 nM.
The value for `Cc1noc(C)c1-c1ccc2c(c1C)C(c1ccccc1)OC2=O` (centres unmarked) [Example 17, 5-(3,5-Dimethyl-isoxazol-4-yl)-4-methyl-3-phenyl-3H-isobenzofuran-1-one] was 1080 nM; that for `Cc1noc(C)c1-c1ccc2c(c1)[C@H](c1ccccc1)N(C)C2=O` [Example 9, (S)-5-(3,5-Dimethyl-isoxazol-4-yl)-2-methyl-3-phenyl-2,3-dihydro-isoindol-1-one] was 14 nM.
Regarding `Cc1cc(-c2c(C)noc2C)cc2c1C(=O)N(C)C2c1ccccc1` (centres unmarked) [Example 11, 5-(3,5-Dimethyl-isoxazol-4-yl)-2,7-dimethyl-3-phenyl-2,3-dihydro-isoindol-1-one], 2490 nM corresponded to half-maximal inhibition (IC50).
Next, `Cc1noc(C)c1-c1ccc2c(c1)C(O)(c1ccc3c(c1)OCO3)C(=O)N2` (centres unmarked) [Example 29, 3-Benzo[1,3]dioxol-5-yl-5-(3,5-dimethyl-isoxazol-4-yl)-3-hydroxy-1,3-dihydro-indol-2-one]: 541 nM.
The value for `Cc1noc(C)c1-c1ccc2c(c1)C(O)(c1cccnc1)C(=O)N2` (centres unmarked) [Example 31, 5-(3,5-Dimethyl-isoxazol-4-yl)-3-hydroxy-3-pyridin-3-yl-1,3-dihydro-indol-2-one] was 395 nM.
Next, `Cc1noc(C)c1-c1ccc2c(c1)C(O)(c1cccs1)C(=O)N2` (centres unmarked) [Example 26, 5-(3,5-Dimethyl-isoxazol-4-yl)-3-hydroxy-3-thiophen-2-yl-1,3-dihydro-indol-2-one]: 320 nM; `Cc1noc(C)c1-c1ccc2c(c1)[C@](O)(c1ccccc1)C(=O)N2` [Example 22, 5-(3,5-Dimethyl-isoxazol-4-yl)-3-hydroxy-3-phenyl-1,3-dihydro-indol-2-one]: 48 nM.

One may read the IC50 as the concentration that inhibits the measured activity by half. Higher therefore signals weaker potency in that assay.

The record behind these values is patent US9102684B2, “Indolinone analogues” (Boehringer Ingelheim International GmbH, priority 2013, dated 2015).
